This assay addresses Metabotropic glutamate receptor 5 (Rattus norvegicus, UniProt P31424). Nature of the assay: Functional Calcium Flux Assay: For functional assays, HEK293 cells stably expressing recombinant rat mGluR5 were seeded in 384-well plates and dye loaded using Fluo-8. Cells were then washed to remove the un-incorporated dye. Antagonist evaluation was performed following a 15 min incubation of the test compound followed by the addition of submaximal concentration of glutamate. Intracellular calcium ([Ca2+]i) measurements were performed using a fluorometric imaging plate reader (FLIPR, Molecular Devices). The glutamate-evoked increase in [Ca2+]i in the presence of the test compounds was compared to the response to glutamate alone (the positive control). Antagonist inhibition curves were fitted with a 4-parameter logistic equation giving IC50 values, and Hill coefficients using an iterative nonlinear curve fitting algorithm. (A change in cytosolic calcium serves as a functional read-out for many receptors and channels.)

Where only a bound is given, the exact number is not on record here.

Chain of Metabotropic glutamate receptor 5 (P31424 whole entry): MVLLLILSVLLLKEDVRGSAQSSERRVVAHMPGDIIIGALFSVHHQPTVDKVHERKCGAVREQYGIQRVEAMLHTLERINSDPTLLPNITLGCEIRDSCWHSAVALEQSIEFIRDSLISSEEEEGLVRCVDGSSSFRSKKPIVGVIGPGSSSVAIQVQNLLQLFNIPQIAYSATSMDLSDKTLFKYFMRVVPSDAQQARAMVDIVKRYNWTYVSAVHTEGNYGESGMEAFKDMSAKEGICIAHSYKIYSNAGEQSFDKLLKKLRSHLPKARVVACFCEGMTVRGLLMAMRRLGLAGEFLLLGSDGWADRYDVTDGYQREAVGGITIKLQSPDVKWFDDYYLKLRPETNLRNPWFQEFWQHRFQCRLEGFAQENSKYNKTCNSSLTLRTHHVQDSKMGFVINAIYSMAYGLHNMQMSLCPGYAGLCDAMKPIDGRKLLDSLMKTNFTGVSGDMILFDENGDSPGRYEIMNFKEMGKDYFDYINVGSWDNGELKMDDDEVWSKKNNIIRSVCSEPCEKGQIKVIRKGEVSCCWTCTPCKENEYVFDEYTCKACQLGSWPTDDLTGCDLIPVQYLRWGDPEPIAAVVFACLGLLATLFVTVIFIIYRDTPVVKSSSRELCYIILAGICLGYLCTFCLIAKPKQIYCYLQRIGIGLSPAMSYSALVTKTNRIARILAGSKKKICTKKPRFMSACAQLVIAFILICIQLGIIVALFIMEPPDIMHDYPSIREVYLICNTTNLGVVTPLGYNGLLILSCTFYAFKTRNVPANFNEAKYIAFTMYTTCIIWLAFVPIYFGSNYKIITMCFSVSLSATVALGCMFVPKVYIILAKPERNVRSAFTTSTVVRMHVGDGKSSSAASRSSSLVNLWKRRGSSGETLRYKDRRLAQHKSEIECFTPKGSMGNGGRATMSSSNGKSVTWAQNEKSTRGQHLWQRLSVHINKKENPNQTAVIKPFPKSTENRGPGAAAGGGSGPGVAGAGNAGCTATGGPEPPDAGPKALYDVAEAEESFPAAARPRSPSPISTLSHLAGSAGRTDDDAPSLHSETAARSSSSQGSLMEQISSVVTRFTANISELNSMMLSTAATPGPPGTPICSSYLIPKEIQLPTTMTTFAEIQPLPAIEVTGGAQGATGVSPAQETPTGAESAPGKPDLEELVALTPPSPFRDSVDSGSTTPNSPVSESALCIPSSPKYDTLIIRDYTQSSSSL

The IC50 is the point on the concentration scale where inhibition reaches its midpoint. On to `N#Cc1cc(F)cc(N2CC3CC3(C#Cc3cccc(Cl)n3)C2)c1` (stereo unspecified), for which the IC50 is less than 500 nM.

The values above are taken from ChEMBL document CHEMBL5727120, “Substituted pyrrolidines as mGluR5 antagonists” (2019).
